Legend:
[1] = test system: Chinese hamster ovary (CHO) AA8 cell line; assay: LDH release toxicity assay in cultured CHO AA8 cells; type: cell-based; conditions: 1 hour incubation, read-out: LC50 (the source's name)
Protocol: Various DP-BFA molecules were screened in cultured Chinese hamster ovary (CHO) AA8 cell line in order to establish their toxicity. LC50 values, i.e. the concentrations causing death in 50% of cell population, were calculated from dose response curves. LC50 values of phospho-BFAs were compared to those of the corresponding branched fatty acids (=carbo-BFAs).
Lactate dehydrogenase (LDH) release was used as an assay for the integrity of the cells membrane and, thus, for estimation of toxicity. Cells (2×10^5/ml) were seeded (150 μl/well) in 96 well plates, in RPMI-1640 medium containing 10% FCS. After two days, tested DP-BFA compounds or the control compound myristic acid were added to the plates in declining concentrations ranging from 500 to 1 μg/ml. Cells were harvested after one hour. […] Other controls included, two blank wells and five wells containing cells with no additional drugs. Following centrifugation (1500 rpm, 5 min), 75 μl of the supernatant was transferred to a new plate with 45 μl of an LDH assay mix (Tox-7 kit, Sigma). After 10–20 minutes at room temperature, absorbance was measured using an Elisa Reader 490 nm.
Each experiment was performed in triplicate.

[2] = test system: blood tumor barrier / blood brain barrier; assay: Unilateral administration in rats with bilateral C6 gliomas, Evans blue staining of brain sections; type: in vivo, SD rats; conditions: 10 μM 3,12-DEG-HPO4Na; 40 μM 3,12-Na; 25% mannitol; unilateral infusion
Protocol: FIGS. 2A–C depict Evans blue accumulation in brain sections of rats bearing bilateral gliomas following unilateral administration of a compound as follows: 10 μM 3,12-DEG-HPO4Na (FIG. 2A), 40 μM 3,12-Na (FIG. 2B) or mannitol 25% (FIG. 2C).
Evans Blue and Fluoroscein penetration into gliomas tumors was examined following unilateral infusion into the external carotis artery of either 10 μM 3,12-DEG-HPO4Na (FIG. 2A), 40 μM 3,12-Na BFA (FIG. 2B) or 25% mannitol (FIG. 2C). The relevant compound was infused into rat brains at 9 to 12 days following inoculation of C6 glioma cells as described in Example 23.

[3] = test system: caspase-3 activity in Neuro2a neuroblastoma cells; assay: Caspase-3 activity in Neuro2a cell lysates (Ac-DEVD-AMC substrate); type: cell-based, mouse
Protocol: (§1) In order to further explore the possible mechanism underlying the cytotoxic effect exerted by the various DP-BFAs, two established markers for apoptosis, caspase-3 activity and DNA fragmentation (Lincz (1998) Immunol. Cell Biol. 76: 1–19), were studied.
(§2) Neuro2a neuroblastoma cells (ATCC, CCL-131) were seeded in MEM containing 2 mM L-glutamine, 100 units/ml penicillin, 100 ug/ml streptomycin and 10% FCS at 37° C. 24 hours later, when cells were in logarithmic growth phase, 3,12-DEG-PC was added to a final concentration of 25 μM, 50 μM or 100 μM. Cells grown in the presence of vehicle only served as control group.
(§3) Assays for caspase-3 activity and DNA-fragmentation were performed on cell lysates obtained following, respectively, 6 and 24 hours incubation with the drug. Caspase-3 activity was assayed using the fluorogenic substrate Ac-DEVD-AMC (Pharmingen, Becton Dickinson, cat. no. 66081U) and following the manufacture's instructions. DNA-fragmentation was quantified by using the Cell Death Detection Elisa plus kit (Roche, cat. no. 1774 425) and following the manufacture's instructions.
(§4) The measured caspase activity is expressed as percentage of the activity in the control plates normalized to protein content. DNA-fragmentation is expressed as OD values at λ=405 nm and is an average of readings from duplicate cell culture lysates.

[4] = test system: DNA fragmentation in Neuro2a neuroblastoma cells; assay: DNA fragmentation in Neuro2a cells (Cell Death Detection Elisa); type: cell-based, mouse; conditions: for DNA fragmentation (OD405 nm): 24 hours, Neuro2a (control 0.030)
Protocol: as §1, §2, §3, §4

[5] = test system: blood brain barrier (BBB); assay: Duration of the effect on BBB opening in rat brain; type: in vivo, Sprague Dawley rats; conditions: EC50 concentrations of the tested compounds
Description: The effects of DP-BFA on Evans Blue and Fluoroscein extravasation in rat brain were examined at various time points following DP-BFA administration. Various DP-BFA compounds were infused, over a period of 30 seconds, into the external carotid artery of Sprague Dawley rats, following the procedure described above in Example 17. The tested compounds were used at their EC50 concentrations. […] Two compounds, 3,12-PC and 3,12-MEG-PC, both comprising a phosphocholine moiety, have shown D1/2 which was 4 times longer than the other tested 3,12-BFA derivatives, i.e. D1/2 of around 120 min.

C6 glioma tumor = assay: Anti-tumor effect in C6 glioma-bearing rats, tumor volume and appearance (Example 28); type: in vivo, Sprague Dawley (SD) rats
Protocol: The anti-tumor effect of DP-BFA was evaluated by monitoring tumor volume and appearance in a model system of C6 glioma-bearing rats. Sprague Dawley (SD) rats were inoculated with 2.5×10^5 C6 glioma cells in 5 μl PBS as follows. Rats were mounted into a stereotactic head holder in a flat-skull position. After reflections of the periosteum, a burr hole was preformed with a 1 mm drill in the following coordinates: bregma—1.0, 3.50 mm lateral from the midline on the left side, and at a depth of 3.50 mm. The cell suspension was manually injected at a depth of 3.50 mm using a 10 μl Hamilton syringe.
The pterigo-palatina artery was legated, and the common carotid artery was clamped at the time of infusion.
Five days after the inoculation of the C6 tumor cells, the rats were anesthetized with Ketamin/xylazin (1:1) 0.1 ml/100 grams body weight, perfused with saline and fixed with 4% Formaldehyde solution. Brains were removed and cryoprotected in a sucrose solution for 48 h. The brains were then sliced in coronal section, stained with Haematoxylin-Eosine and underwent pathology evaluation.

CCCCCCCCCCCCC(CCC)C(=O)OCCOCCOP(=O)([O-])[O-].[Na+].[Na+] (stereo not drawn) [3,12-DEG-PO4Na2, 2-[2′-(2″-Propyltetradecanoyloxy)-ethoxy]ethyl Disodium Phosphate]
CC50 [1]: 320 µM

CCCCCCCCCCCCC(CCC)C(=O)[O-].[Na+] (stereo not drawn) [3,12-Na, reference compound]
CC50 [1]: 165 µM
Evans Blue staining of tumor and non-tumor brain (FIG. 2, in words) [2]: equally permeabilized tumor and non-tumor brain tissues

CCCCCCCCCCCCC(CCC)C(=O)OCCOCCOP(=O)([O-])OCC[N+](C)(C)C (stereo not drawn) [3,12-DEG-PC, 2-(2′-Propyltetradecanoyloxy)ethoxyethylphosphocholine]
activity at 25 µM ([3]; Mus musculus, N2a, 25 μM, 6 hours, Neuro2a, normalized to protein content, read-out: Caspase activity (% of control)): 210%
activity at 50 µM ([3]; Mus musculus, N2a, 50 μM, 6 hours, Neuro2a, normalized to protein content, read-out: Caspase activity (% of control)): 540%
increase in caspase-3 activity ([3]; Neuro2a cells): about 5 fold
DNA fragmentation (OD405 nm) ([4]; 25 μM): 0.036 OD405 nm
DNA fragmentation (OD405 nm) ([4]; 50 μM): 0.153 OD405 nm
DNA fragmentation (OD405 nm) ([4]; 100 μM): 0.389 OD405 nm
DNA fragmentation (in words) ([4]; Neuro2a cells): significant increase in DNA fragmentation

CCCCCCCCCCCCC(CCC)C(=O)OCCOP(=O)([O-])OCC[N+](C)(C)C (stereo not drawn) [3,12-MEG-PC, 2-(2′-Propyltetradecanoyloxy)ethylphosphocholine]
D1/2 (duration of at least 50% opening of the BBB) [5]: around 120 min

2-(4′-Hexadecanoyloxy)ethoxyethyl phosphate [3,12-DEG-PO4]
anti-tumor effect, invasiveness and rate of growth (in words) (C6 glioma tumor; rat, in vivo): significant anti-tumor effect
Tumor volume (C6 glioma tumor; single dose 5 to 20 μM, 72 h post inoculation, vehicle 8.1±2.2): 1.6±0.2 mm^3
Evans Blue staining of tumor and non-tumor brain (FIG. 2, in words) [2]: only in the tumor tissue in the ipsilateral hemisphere

CCCCCCCCCCCCC(CCC)OP(=O)([O-])OCC[N+](C)(C)C (stereo not drawn) [3,12-PC, 4-Hexadecanyl phosphocholine]
D1/2 (duration of at least 50% opening of the BBB) [5]: around 120 min
